According to paper PMC10784415 (Developmental dynamics : an official publication of the …, 2023):

Test: Toxicokinetics of infigratinib in juvenile rat plasma after oral gavage
Format: in vivo, Crl:WI(Han) rat
Settings: for RAUC: AUC vs first dosing day; for AUC(0-t) / Cmax / half-life / Tmax: Crl:WI(Han), rat, plasma, po
[1] = Female rats, 0.1 mg/kg/day oral, PND 7
[2] = Female rats, 0.1 mg/kg/day oral, PND 12
[3] = Female rats, 0.1 mg/kg/day oral, PND 17
[4] = Female rats, 0.1 mg/kg/day oral, PND 23
[5] = Female rats, 0.1 mg/kg/day oral, PND 35
[6] = Female rats, 0.3 mg/kg/day oral, PND 7
[7] = Female rats, 0.3 mg/kg/day oral, PND 12
[8] = Female rats, 0.3 mg/kg/day oral, PND 17
[9] = Female rats, 0.3 mg/kg/day oral, PND 23
[10] = Female rats, 0.3 mg/kg/day oral, PND 35
[11] = Female rats, 1.0 mg/kg/day oral, PND 7
[12] = Female rats, 1.0 mg/kg/day oral, PND 12
[13] = Female rats, 1.0 mg/kg/day oral, PND 17
[14] = Female rats, 1.0 mg/kg/day oral, PND 23
[15] = Female rats, 1.0 mg/kg/day oral, PND 35
[16] = Male rats, 0.1 mg/kg/day oral, PND 7
[17] = Male rats, 0.1 mg/kg/day oral, PND 12
[18] = Male rats, 0.1 mg/kg/day oral, PND 17
[19] = Male rats, 0.1 mg/kg/day oral, PND 23
[20] = Male rats, 0.1 mg/kg/day oral, PND 35
[21] = Male rats, 0.3 mg/kg/day oral, PND 7
[22] = Male rats, 0.3 mg/kg/day oral, PND 12
[23] = Male rats, 0.3 mg/kg/day oral, PND 17
[24] = Male rats, 0.3 mg/kg/day oral, PND 23
[25] = Male rats, 0.3 mg/kg/day oral, PND 35
[26] = Male rats, 1.0 mg/kg/day oral, PND 7
[27] = Male rats, 1.0 mg/kg/day oral, PND 12
[28] = Male rats, 1.0 mg/kg/day oral, PND 17
[29] = Male rats, 1.0 mg/kg/day oral, PND 23
[30] = Male rats, 1.0 mg/kg/day oral, PND 35
[31] = female, 0.1 mg/kg/day, Female rats, 0.1 mg/kg/day oral, PND 7
[32] = female, 0.1 mg/kg/day, Female rats, 0.1 mg/kg/day oral, PND 12
[33] = female, 0.1 mg/kg/day, Female rats, 0.1 mg/kg/day oral, PND 23
[34] = female, 0.1 mg/kg/day, Female rats, 0.1 mg/kg/day oral, PND 35
[35] = female, 0.3 mg/kg/day, Female rats, 0.3 mg/kg/day oral, PND 7
[36] = female, 0.3 mg/kg/day, Female rats, 0.3 mg/kg/day oral, PND 12
[37] = female, 0.3 mg/kg/day, Female rats, 0.3 mg/kg/day oral, PND 23
[38] = female, 0.3 mg/kg/day, Female rats, 0.3 mg/kg/day oral, PND 35
[39] = female, 1 mg/kg/day, Female rats, 1.0 mg/kg/day oral, PND 7
[40] = female, 1 mg/kg/day, Female rats, 1.0 mg/kg/day oral, PND 12
[41] = female, 1 mg/kg/day, Female rats, 1.0 mg/kg/day oral, PND 23
[42] = female, 1 mg/kg/day, Female rats, 1.0 mg/kg/day oral, PND 35
[43] = male, 0.1 mg/kg/day, Male rats, 0.1 mg/kg/day oral, PND 7
[44] = male, 0.1 mg/kg/day, Male rats, 0.1 mg/kg/day oral, PND 12
[45] = male, 0.1 mg/kg/day, Male rats, 0.1 mg/kg/day oral, PND 23
[46] = male, 0.1 mg/kg/day, Male rats, 0.1 mg/kg/day oral, PND 35
[47] = male, 0.3 mg/kg/day, Male rats, 0.3 mg/kg/day oral, PND 7
[48] = male, 0.3 mg/kg/day, Male rats, 0.3 mg/kg/day oral, PND 12
[49] = male, 0.3 mg/kg/day, Male rats, 0.3 mg/kg/day oral, PND 23
[50] = male, 0.3 mg/kg/day, Male rats, 0.3 mg/kg/day oral, PND 35
[51] = male, 1 mg/kg/day, Male rats, 1.0 mg/kg/day oral, PND 7
[52] = male, 1 mg/kg/day, Male rats, 1.0 mg/kg/day oral, PND 12
[53] = male, 1 mg/kg/day, Male rats, 1.0 mg/kg/day oral, PND 23
[54] = male, 1 mg/kg/day, Male rats, 1.0 mg/kg/day oral, PND 35

CCN1CCN(c2ccc(Nc3cc(N(C)C(=O)Nc4c(Cl)c(OC)cc(OC)c4Cl)ncn3)cc2)CC1 [infigratinib, 3-(2,6-Dichloro-3,5-dimethoxy-phenyl)-1-{6-[4-(4-ethyl-piperazin-1-yl)-phenylamino]-pyrimidin-4-yl}-1-methyl-urea]
Cmax/D [1]: 41.8 (ng/mL)/(mg/kg/day)
Tlast [1]: 24 h
Cmax/D [2]: 34.0 (ng/mL)/(mg/kg/day)
Tlast [2]: 24 h
RAUC [2]: 0.941 ratio
Cmax/D [3]: 90.6 (ng/mL)/(mg/kg/day)
Tlast [3]: 24 h
RAUC [3]: 0.839 ratio
Cmax/D [4]: 7.8 (ng/mL)/(mg/kg/day)
Tlast [4]: 12 h
RAUC [4]: 0.108 ratio
Cmax/D [5]: 3.0 (ng/mL)/(mg/kg/day)
Tlast [5]: 7 h
RAUC [5]: 0.0325 ratio
Cmax/D [6]: 64.7 (ng/mL)/(mg/kg/day)
Tlast [6]: 24 h
Cmax/D [7]: 49.7 (ng/mL)/(mg/kg/day)
Tlast [7]: 24 h
RAUC [7]: 0.751 ratio
Cmax/D [8]: 60.2 (ng/mL)/(mg/kg/day)
Tlast [8]: 24 h
RAUC [8]: 0.548 ratio
Cmax/D [9]: 7.49 (ng/mL)/(mg/kg/day)
Tlast [9]: 24 h
RAUC [9]: 0.103 ratio
Cmax/D [10]: 2.2 (ng/mL)/(mg/kg/day)
Tlast [10]: 12 h
RAUC [10]: 0.0249 ratio
Cmax/D [11]: 53.2 (ng/mL)/(mg/kg/day)
Tlast [11]: 24 h
Cmax/D [12]: 56.6 (ng/mL)/(mg/kg/day)
Tlast [12]: 24 h
RAUC [12]: 1.15 ratio
Cmax/D [13]: 41.2 (ng/mL)/(mg/kg/day)
Tlast [13]: 24 h
RAUC [13]: 0.974 ratio
Cmax/D [14]: 10.4 (ng/mL)/(mg/kg/day)
Tlast [14]: 24 h
RAUC [14]: 0.141 ratio
Cmax/D [15]: 4.04 (ng/mL)/(mg/kg/day)
Tlast [15]: 12 h
RAUC [15]: 0.0566 ratio
Cmax/D [16]: 32.1 (ng/mL)/(mg/kg/day)
Tlast [16]: 24 h
Cmax/D [17]: 33.2 (ng/mL)/(mg/kg/day)
Tlast [17]: 24 h
RAUC [17]: 1.24 ratio
Cmax/D [18]: 29.9 (ng/mL)/(mg/kg/day)
Tlast [18]: 24 h
RAUC [18]: 0.882 ratio
Cmax/D [19]: 5.77 (ng/mL)/(mg/kg/day)
Tlast [19]: 12 h
RAUC [19]: 0.12 ratio
Cmax/D [20]: 3.07 (ng/mL)/(mg/kg/day)
Tlast [20]: 12 h
RAUC [20]: 0.0613 ratio
Cmax/D [21]: 38.8 (ng/mL)/(mg/kg/day)
Tlast [21]: 24 h
Cmax/D [22]: 47.1 (ng/mL)/(mg/kg/day)
Tlast [22]: 24 h
RAUC [22]: 1.3 ratio
Cmax/D [23]: 27.1 (ng/mL)/(mg/kg/day)
Tlast [23]: 24 h
RAUC [23]: 0.898 ratio
Cmax/D [24]: 7.1 (ng/mL)/(mg/kg/day)
Tlast [24]: 24 h
RAUC [24]: 0.187 ratio
Cmax/D [25]: 3.08 (ng/mL)/(mg/kg/day)
Tlast [25]: 12 h
RAUC [25]: 0.0524 ratio
Cmax/D [26]: 37.3 (ng/mL)/(mg/kg/day)
Tlast [26]: 24 h
Cmax/D [27]: 68.8 (ng/mL)/(mg/kg/day)
Tlast [27]: 24 h
RAUC [27]: 1.59 ratio
Cmax/D [28]: 34.1 (ng/mL)/(mg/kg/day)
Tlast [28]: 24 h
RAUC [28]: 0.944 ratio
Cmax/D [29]: 11.2 (ng/mL)/(mg/kg/day)
Tlast [29]: 24 h
RAUC [29]: 0.233 ratio
Cmax/D [30]: 2.98 (ng/mL)/(mg/kg/day)
Tlast [30]: 12 h
RAUC [30]: 0.0648 ratio
AUC(0-t) [31]: 43 ng·h/mL
AUC(0-t) [32]: 40.5 ng·h/mL
AUC(0-t) [33]: 4.66 ng·h/mL
AUC(0-t) [34]: 1.4 ng·h/mL
Cmax [31]: 4.18 ng/mL
Cmax [32]: 3.4 ng/mL
Cmax [33]: 0.78 ng/mL
Cmax [34]: 0.3 ng/mL
half-life (female, 0.1 mg/kg/day, T1/2, Female rats, 0.1 mg/kg/day oral, PND 7): 4.7 h
half-life (female, 0.1 mg/kg/day, T1/2, Female rats, 0.1 mg/kg/day oral, PND 12): 5.66 h
Tmax [31]: 3 h
Tmax [32]: 3 h
Tmax [33]: 3 h
Tmax [34]: 1 h
AUC(0-t) [35]: 183 ng·h/mL
AUC(0-t) [36]: 137 ng·h/mL
AUC(0-t) [37]: 18.8 ng·h/mL
AUC(0-t) [38]: 4.54 ng·h/mL
Cmax [35]: 19.4 ng/mL
Cmax [36]: 14.9 ng/mL
Cmax [37]: 2.25 ng/mL
Cmax [38]: 0.66 ng/mL
half-life (female, 0.3 mg/kg/day, T1/2, Female rats, 0.3 mg/kg/day oral, PND 7): 4.26 h
half-life (female, 0.3 mg/kg/day, T1/2, Female rats, 0.3 mg/kg/day oral, PND 12): 3.82 h
half-life (female, 0.3 mg/kg/day, T1/2, Female rats, 0.3 mg/kg/day oral, PND 23): 4.53 h
Tmax [35]: 3 h
Tmax [36]: 3 h
Tmax [37]: 3 h
Tmax [38]: 3 h
AUC(0-t) [39]: 516 ng·h/mL
AUC(0-t) [40]: 593 ng·h/mL
AUC(0-t) [41]: 73 ng·h/mL
Cmax [39]: 53.2 ng/mL
Cmax [40]: 56.6 ng/mL
Cmax [41]: 10.4 ng/mL
Cmax [42]: 4.04 ng/mL
half-life (female, 1 mg/kg/day, T1/2, Female rats, 1.0 mg/kg/day oral, PND 7): 5.23 h
half-life (female, 1 mg/kg/day, T1/2, Female rats, 1.0 mg/kg/day oral, PND 12): 3.97 h
half-life (female, 1 mg/kg/day, T1/2, Female rats, 1.0 mg/kg/day oral, PND 23): 3.25 h
half-life (female, 1 mg/kg/day, T1/2, Female rats, 1.0 mg/kg/day oral, PND 35): 2.51 h
Tmax [39]: 3 h
Tmax [40]: 1 h
Tmax [41]: 1 h
Tmax [42]: 1 h
AUC(0-t) [43]: 31.9 ng·h/mL
AUC(0-t) [44]: 39.4 ng·h/mL
AUC(0-t) [45]: 3.81 ng·h/mL
AUC(0-t) [46]: 1.95 ng·h/mL
Cmax [43]: 3.21 ng/mL
Cmax [44]: 3.32 ng/mL
Cmax [45]: 0.577 ng/mL
Cmax [46]: 0.307 ng/mL
half-life (male, 0.1 mg/kg/day, T1/2, Male rats, 0.1 mg/kg/day oral, PND 7): 5.1 h
half-life (male, 0.1 mg/kg/day, T1/2, Male rats, 0.1 mg/kg/day oral, PND 12): 6.34 h
half-life (male, 0.1 mg/kg/day, T1/2, Male rats, 0.1 mg/kg/day oral, PND 35): 2.2 h
Tmax [43]: 3 h
Tmax [44]: 3 h
Tmax [45]: 3 h
Tmax [46]: 1 h
AUC(0-t) [47]: 114 ng·h/mL
AUC(0-t) [48]: 149 ng·h/mL
AUC(0-t) [49]: 21.5 ng·h/mL
AUC(0-t) [50]: 6 ng·h/mL
Cmax [47]: 11.6 ng/mL
Cmax [48]: 14.1 ng/mL
Cmax [49]: 2.13 ng/mL
Cmax [50]: 0.924 ng/mL
half-life (male, 0.3 mg/kg/day, T1/2, Male rats, 0.3 mg/kg/day oral, PND 7): 5.58 h
half-life (male, 0.3 mg/kg/day, T1/2, Male rats, 0.3 mg/kg/day oral, PND 12): 3.75 h
half-life (male, 0.3 mg/kg/day, T1/2, Male rats, 0.3 mg/kg/day oral, PND 23): 4.37 h
Tmax [47]: 3 h
Tmax [48]: 3 h
Tmax [49]: 3 h
Tmax [50]: 3 h
AUC(0-t) [51]: 375 ng·h/mL
AUC(0-t) [52]: 596 ng·h/mL
AUC(0-t) [53]: 87.2 ng·h/mL
AUC(0-t) [54]: 24.3 ng·h/mL
Cmax [51]: 37.3 ng/mL
Cmax [52]: 68.8 ng/mL
Cmax [53]: 11.2 ng/mL
Cmax [54]: 2.98 ng/mL
half-life (male, 1 mg/kg/day, T1/2, Male rats, 1.0 mg/kg/day oral, PND 12): 3.33 h
half-life (male, 1 mg/kg/day, T1/2, Male rats, 1.0 mg/kg/day oral, PND 23): 3.64 h
Tmax [51]: 7 h
Tmax [52]: 3 h
Tmax [53]: 3 h
Tmax [54]: 3 h
